Test results as given in ChEMBL document CHEMBL1201862, “PubChem BioAssay data set” (2004).
Active and inactive are the calls of the source.

Assays:
[1] = target: T1, High affinity choline transporter 1 (Homo sapiens, UniProt Q9GZV3); test: human choline transporter blockers, potency – cell-based, 5-point CRC, membrane potential dye, dose response (AID 504840); type: functional
T1 sequence (Q9GZV3 whole entry): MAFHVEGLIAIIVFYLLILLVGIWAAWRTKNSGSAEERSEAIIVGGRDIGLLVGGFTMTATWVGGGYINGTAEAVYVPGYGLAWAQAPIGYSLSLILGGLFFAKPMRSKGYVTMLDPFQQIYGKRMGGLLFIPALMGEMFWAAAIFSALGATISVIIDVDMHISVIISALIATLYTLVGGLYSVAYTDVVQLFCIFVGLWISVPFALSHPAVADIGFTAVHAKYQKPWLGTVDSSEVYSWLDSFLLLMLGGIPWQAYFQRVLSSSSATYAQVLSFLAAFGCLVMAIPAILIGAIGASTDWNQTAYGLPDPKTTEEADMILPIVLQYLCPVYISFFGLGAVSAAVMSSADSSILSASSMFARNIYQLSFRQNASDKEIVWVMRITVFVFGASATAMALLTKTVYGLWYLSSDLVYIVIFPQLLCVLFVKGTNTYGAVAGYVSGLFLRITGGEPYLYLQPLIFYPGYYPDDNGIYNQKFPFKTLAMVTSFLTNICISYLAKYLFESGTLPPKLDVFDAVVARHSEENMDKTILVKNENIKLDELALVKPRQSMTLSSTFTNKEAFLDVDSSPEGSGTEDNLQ

[2] = target: Nonstructural protein 1 (Influenza A virus, UniProt Q194T2); type: functional, Influenza A virus (A/California/07/2009(H1N1))
[3] = target: T2, Leucine aminopeptidase (Plasmodium falciparum 3D7, UniProt Q8IL11); test: P. falciparum M17LAP inhibitors, primary screen, biochemical, fluorogenic H-Leu-NHMec substrate, 1536-well (AID 1619); type: functional
T2 sequence (Q8IL11 whole entry): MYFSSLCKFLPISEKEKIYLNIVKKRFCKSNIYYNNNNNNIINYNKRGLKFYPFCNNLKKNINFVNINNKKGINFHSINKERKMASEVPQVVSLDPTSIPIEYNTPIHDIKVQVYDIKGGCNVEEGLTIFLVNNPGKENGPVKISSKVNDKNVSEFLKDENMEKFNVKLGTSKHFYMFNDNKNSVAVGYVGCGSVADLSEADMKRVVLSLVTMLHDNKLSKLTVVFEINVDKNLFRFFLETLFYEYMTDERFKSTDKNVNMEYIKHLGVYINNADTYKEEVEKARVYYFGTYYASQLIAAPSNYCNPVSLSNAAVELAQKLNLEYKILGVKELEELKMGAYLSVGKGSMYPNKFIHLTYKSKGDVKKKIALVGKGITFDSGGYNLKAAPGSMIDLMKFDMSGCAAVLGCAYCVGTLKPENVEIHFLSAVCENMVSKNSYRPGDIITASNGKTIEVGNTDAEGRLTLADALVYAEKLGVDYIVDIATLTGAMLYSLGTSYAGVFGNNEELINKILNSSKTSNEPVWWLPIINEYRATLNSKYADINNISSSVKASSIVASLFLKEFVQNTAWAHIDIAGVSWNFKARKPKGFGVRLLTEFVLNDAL

[4] = target: T3, Voltage-gated N-type calcium channel alpha-1B subunit/Amyloid beta A4 precursor protein-binding family A member 1 (Homo sapiens, UniProt Q00975+Q02410); type: protein assay
[5] = target: T3, Voltage-gated N-type calcium channel alpha-1B subunit/Amyloid beta A4 precursor protein-binding family A member 1; type: protein assay; remark: listed apart in the source
[6] = test system: H9c2; test: cells; type: functional, cell-based; details: Rattus norvegicus, H9c2, Myocardium;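 also: confirmatory concentration-response retest of ultra-high-throughput screening hits for modulation of myocardial damage; cell death induced by hydrogen peroxide oxidative stress; compound pretreatment for 60 min then peroxide exposure for 2 h; potency is for protecting the cells against peroxide damage rather than for killing them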
[7] = target: Peroxisome proliferator-activated receptor gamma/Nuclear receptor coactivator 2 (Homo sapiens, UniProt P37231); test: (§1) TR-FRET dose response biochemical High Throughput Screening assay for agonists of the steroid receptor coactivator 2 (SRC-2) recruitment by the peroxisome proliferator-activated receptor gamma (PPAR gamma): non-selective agonists. [Related pubchem assays: 1297, 1032 ]; type: functional
[8] = target: Peroxisome proliferator-activated receptor gamma/Nuclear receptor coactivator 3 (Homo sapiens, UniProt P37231); test: as §1, with “3 (SRC-3)” for “2 (SRC-2)”, “1301 (Confirmation screen.), 1048 (Primary screen.)]” for “1297, 1032 ]”; type: functional
[9] = target: Peroxisome proliferator-activated receptor gamma/Nuclear receptor coactivator 1 (Homo sapiens, UniProt P37231); test: as §1, with “1 (SRC-1)” for “2 (SRC-2)”, “assays (depositor defined):AID1300, AID1808, AID504735, AID631]” for “assays: 1297, 1032 ]”; type: protein assay

Nonstructural protein 1, sequence (Q194T2 whole entry): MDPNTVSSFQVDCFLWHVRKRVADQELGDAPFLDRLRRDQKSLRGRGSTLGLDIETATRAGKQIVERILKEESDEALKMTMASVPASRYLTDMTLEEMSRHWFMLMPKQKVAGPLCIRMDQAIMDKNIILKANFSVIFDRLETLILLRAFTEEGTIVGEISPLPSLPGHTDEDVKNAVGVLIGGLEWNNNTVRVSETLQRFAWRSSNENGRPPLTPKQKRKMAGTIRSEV
T3 sequence (Q00975 whole entry): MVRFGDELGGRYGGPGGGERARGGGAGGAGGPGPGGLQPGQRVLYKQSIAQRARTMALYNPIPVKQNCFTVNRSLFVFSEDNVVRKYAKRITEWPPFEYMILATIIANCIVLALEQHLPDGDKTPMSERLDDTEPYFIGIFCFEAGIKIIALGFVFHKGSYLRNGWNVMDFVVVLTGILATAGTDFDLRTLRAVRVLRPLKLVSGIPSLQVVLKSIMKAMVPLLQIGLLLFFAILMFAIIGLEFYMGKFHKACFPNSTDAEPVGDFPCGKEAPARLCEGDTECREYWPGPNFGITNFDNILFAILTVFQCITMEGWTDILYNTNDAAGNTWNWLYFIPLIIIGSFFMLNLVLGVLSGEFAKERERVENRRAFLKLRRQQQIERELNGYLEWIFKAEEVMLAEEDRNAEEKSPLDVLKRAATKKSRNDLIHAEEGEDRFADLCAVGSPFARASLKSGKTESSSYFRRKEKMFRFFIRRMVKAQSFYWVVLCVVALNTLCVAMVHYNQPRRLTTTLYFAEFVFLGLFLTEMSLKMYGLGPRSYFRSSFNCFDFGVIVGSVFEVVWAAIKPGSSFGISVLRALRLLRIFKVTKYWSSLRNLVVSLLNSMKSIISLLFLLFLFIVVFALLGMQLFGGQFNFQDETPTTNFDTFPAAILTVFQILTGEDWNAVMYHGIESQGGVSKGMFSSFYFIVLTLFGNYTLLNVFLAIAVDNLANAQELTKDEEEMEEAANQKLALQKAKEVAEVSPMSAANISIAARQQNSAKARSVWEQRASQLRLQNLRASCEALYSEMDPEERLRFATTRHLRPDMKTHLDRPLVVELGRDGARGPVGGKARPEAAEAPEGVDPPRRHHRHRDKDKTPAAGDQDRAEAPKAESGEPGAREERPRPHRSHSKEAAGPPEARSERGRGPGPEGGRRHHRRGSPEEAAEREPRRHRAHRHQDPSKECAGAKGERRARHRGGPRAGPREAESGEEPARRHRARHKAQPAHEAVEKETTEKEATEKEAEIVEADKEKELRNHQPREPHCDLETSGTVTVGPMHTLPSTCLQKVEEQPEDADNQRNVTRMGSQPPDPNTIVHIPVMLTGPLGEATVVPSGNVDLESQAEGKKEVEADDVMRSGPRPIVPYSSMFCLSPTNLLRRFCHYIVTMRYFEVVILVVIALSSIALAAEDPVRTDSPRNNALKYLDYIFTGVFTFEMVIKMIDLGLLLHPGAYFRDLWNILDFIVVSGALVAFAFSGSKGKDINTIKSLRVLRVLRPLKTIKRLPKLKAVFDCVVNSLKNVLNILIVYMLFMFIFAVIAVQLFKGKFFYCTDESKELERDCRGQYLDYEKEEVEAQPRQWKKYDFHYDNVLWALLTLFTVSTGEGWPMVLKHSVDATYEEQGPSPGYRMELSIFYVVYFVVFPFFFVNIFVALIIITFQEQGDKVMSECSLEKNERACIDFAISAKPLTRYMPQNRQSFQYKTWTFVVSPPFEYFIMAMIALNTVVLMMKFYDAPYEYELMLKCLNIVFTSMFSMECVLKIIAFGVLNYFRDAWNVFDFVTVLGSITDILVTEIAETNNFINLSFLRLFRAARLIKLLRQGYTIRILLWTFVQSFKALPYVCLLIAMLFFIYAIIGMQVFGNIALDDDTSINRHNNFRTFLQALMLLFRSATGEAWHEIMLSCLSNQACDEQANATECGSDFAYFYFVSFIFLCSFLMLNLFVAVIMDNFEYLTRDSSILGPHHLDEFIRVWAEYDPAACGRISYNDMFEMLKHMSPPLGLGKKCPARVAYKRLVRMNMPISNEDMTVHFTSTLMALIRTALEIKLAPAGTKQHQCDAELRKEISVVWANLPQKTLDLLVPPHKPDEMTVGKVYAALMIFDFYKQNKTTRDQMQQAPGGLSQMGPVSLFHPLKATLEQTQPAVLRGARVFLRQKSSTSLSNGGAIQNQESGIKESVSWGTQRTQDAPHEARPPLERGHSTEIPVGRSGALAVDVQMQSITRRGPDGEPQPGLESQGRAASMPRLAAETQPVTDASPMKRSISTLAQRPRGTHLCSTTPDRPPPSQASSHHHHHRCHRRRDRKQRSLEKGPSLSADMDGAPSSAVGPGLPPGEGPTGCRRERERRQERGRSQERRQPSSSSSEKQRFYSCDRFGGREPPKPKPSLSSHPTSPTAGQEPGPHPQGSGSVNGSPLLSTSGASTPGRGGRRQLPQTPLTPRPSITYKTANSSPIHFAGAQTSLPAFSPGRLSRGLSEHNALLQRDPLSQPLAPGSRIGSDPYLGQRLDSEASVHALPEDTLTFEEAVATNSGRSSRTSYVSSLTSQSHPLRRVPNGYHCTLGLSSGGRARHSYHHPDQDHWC
T3 sequence (Q02410 whole entry): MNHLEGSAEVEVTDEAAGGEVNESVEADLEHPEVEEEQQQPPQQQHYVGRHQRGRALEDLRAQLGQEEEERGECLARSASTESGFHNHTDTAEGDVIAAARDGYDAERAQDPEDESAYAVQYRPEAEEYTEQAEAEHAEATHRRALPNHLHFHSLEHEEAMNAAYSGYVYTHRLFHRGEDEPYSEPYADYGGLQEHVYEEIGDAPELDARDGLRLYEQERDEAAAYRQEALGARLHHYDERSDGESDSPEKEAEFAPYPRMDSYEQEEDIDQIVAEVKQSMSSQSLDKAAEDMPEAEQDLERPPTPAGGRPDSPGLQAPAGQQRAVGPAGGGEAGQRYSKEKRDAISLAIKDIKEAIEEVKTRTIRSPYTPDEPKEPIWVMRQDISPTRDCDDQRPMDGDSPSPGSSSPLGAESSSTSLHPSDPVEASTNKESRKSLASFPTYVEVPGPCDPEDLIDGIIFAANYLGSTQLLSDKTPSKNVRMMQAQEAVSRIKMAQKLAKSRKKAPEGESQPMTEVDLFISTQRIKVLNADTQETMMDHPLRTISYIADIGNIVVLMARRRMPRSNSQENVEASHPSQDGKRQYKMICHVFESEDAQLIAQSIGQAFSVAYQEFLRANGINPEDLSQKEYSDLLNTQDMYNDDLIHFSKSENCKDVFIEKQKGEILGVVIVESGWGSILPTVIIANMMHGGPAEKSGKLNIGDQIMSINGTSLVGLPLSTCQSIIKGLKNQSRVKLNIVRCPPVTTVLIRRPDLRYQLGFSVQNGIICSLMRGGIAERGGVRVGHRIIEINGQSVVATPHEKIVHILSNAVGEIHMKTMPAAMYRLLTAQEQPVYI

CCCn1c2ccccc2c2cnn(CC(=O)OC)c(=O)c21
IC50 [1]: 15.8 µM (active)

C=CCN1C=C/C(=C\C=C(C#N)C#N)c2ccccc21
IC50 [2]: 14.2 µM (active)

Cc1ccc(NC(S)=Nc2ccc3nc(-c4ccccn4)c(-c4ccccn4)nc3c2)cc1C
IC50 [1]: 13.2 µM (active)

Cc1ccc(S(=O)(=O)Nc2nncs2)cc1
IC50 [3]: 23.2 µM (active)

CCOC(=O)C1CSC(CC(=O)Nc2ccc(OCC)cc2)C(=O)N1 (configuration not stated)
IC50 [3]: 11.4 µM (active)

O=C(NCc1cccnc1)c1ccc(COc2ccccc2Cl)o1
IC50 [1]: 14.5 µM (active)

O=S(=O)(c1ccccc1F)N1CCN(CCc2ccccc2)CC1
IC50 [1]: 5.45 µM (active)

Cc1ccc(S(=O)(=O)/N=C2\C(=O)c3ccccc3C(O)=C2N2CCN(c3ccccc3F)CC2)cc1
IC50 [2]: 79.2 µM (active)

O=C(Nc1ccc(F)cc1)C1=CC(=O)N2CCN=C2S1
IC50 [4]: > 50 µM (inactive) | IC50 [5]: 10.7 µM (active)

COc1ccccc1OCC(=O)N/N=C/c1cccc2cccnc12
IC50 [2]: 13.5 µM (active) | IC50 [6]: 10.9 µM (active)

CCN(C(=O)CN1C(=O)S/C(=C\C=C\c2ccccc2)C1=O)C1CCS(=O)(=O)C1 (configuration not stated)
IC50 [4]: > 50 µM (inactive) | IC50 [5]: > 56.8 µM (not active)

CCn1c(=O)cc(SCC(=O)Nc2cccnc2)c2ccccc21
EC50 [7]: > 79.4 µM (not active) | EC50 [8]: > 79.4 µM (not active) | EC50 [9]: > 79.4 µM (inactive)
